Among the data in patent publication US20160297830A1, “NOVEL COMPOUNDS USEFUL FOR THE TREATMENT OF BACTERIAL INFECTIOUS DISEASES” (GALAPAGOS NV, priority 2013, published 2016) are MIC and IC50 values, retold here.

Values after ≈ are worked out from the molar mass of the structure shown. Like-named read-outs stand apart in the source and are kept apart here.

One assay relates to E. coli Ec1 ATCC 25922. The experiment in a line: Antibacterial activity assay (MIC), E. coli Ec1. In kind it is cell-based. The following applies: Escherichia coli.
For assay [1], the system named is S. aureus Sa26 ATCC 25923. The experiment in a line: Antibacterial activity assay (MIC), S. aureus Sa26. The following applies: Staphylococcus aureus. In kind it is cell-based.
Assay [2] has as its system S. aureus Sa2 clinical strain NCIMB 41953, MRSA. The experiment in a line: microbe, parasite or virus in culture. The following applies: Staphylococcus aureus, read-out: MIC Sa2. In kind it is cell-based.
For assay [3], the system named is H. influenza Hi10 clinical strain. Put plainly: organism not typed. In kind it is cell-based. The following applies: read-out: MIC Hi10.
The subject of the next assay is S. aureus Sa4 NCTC 6571. Put plainly: Antibacterial activity assay (MIC), S. aureus Sa4. It is filed as cell-based. The following applies: Staphylococcus aureus.
For the next assay, the target named is DNA III Polymerase E (Escherichia coli, UniProt P10443). Put plainly: In vitro activity against DNA III Polymerase E, E. coli. It is filed as biochemical. On the procedure:
A radioactive filterplate assay was used to assess inhibitory activity of compounds on DNA Polymerase IIIα. Five μL of a dilution series of compound, starting from 100 μM highest concentration, 1/5 dilution, was added to the wells of a 96 well plate. Recombinant enzyme was diluted to 0.47 μg/mL in a buffer containing 20 mM Tris pH7.5, 8 mM DTT, 10 mM MgOAc, 0.05% CHAPS and 10 μL thereof was added to the compound dilutions. The reaction was started with the addition of 10 μL substrate in the same buffer, containing activated calf thymus DNA (Sigma, D4522), dATP, dGTP, dCTP, dTTP (Invitrogen) and [α-33P]-dTTP (Perkin Elmer, NEG605H001) at a concentration of 62.5 μg/mL, 50 nM and 7.5 μCi/mL respectively. The mixture was incubated at 30° C. for 120 minutes and terminated by addition of phosphoric acid. Samples were transferred to filter plates and incorporated radioactivity was measured by the Topcount. Data were converted to percent inhibition with respect to positive and negative controls. IC50 values were calculated using Graph Prism™ software.

Assay [4] relates to H. influenza Hi47 clinical strain, Ampicillin Resistant. The experiment in a line: organism not typed. It is filed as cell-based. The following applies: read-out: MIC Hi47.
Assay [5] has as its system E. coli Ec113 efflux pump KO. Put plainly: microbe, parasite or virus in culture. The following applies: Escherichia coli, read-out: MIC Ec113 efflux pump KO. It is filed as cell-based.
Assay [6] concerns the target DNA Polymerase IIIα (DnaE) from Staphylococcus aureus (Staphylococcus aureus, UniProt Q6GG04). The experiment in a line: biochemical.
Assay [7] relates to H. influenza Hi3 ATCC 31517. The experiment in a line: organism not typed. In kind it is cell-based. The following applies: read-out: MIC Hi3.
Assay [8] deals with H. influenza Hi106 ATCC 51907. Put plainly: organism not typed. The following applies: read-out: MIC Hi106. It is filed as cell-based.
The test system of a further assay is S. aureus Sa1 ATCC 13709. The experiment in a line: microbe, parasite or virus in culture. The following applies: Staphylococcus aureus. It is filed as cell-based.
In assay [9] the test system is E. coli Ec50 efflux pump KO. Put plainly: microbe, parasite or virus in culture. It is filed as cell-based. The following applies: Escherichia coli, read-out: MIC Ec50 efflux pump KO.
[10] abbreviates: ATCC25922, E. coli Ec1 ATCC 25922, sensitive strain, read-out: MIC Ec1.
[11] abbreviates: ATCC25923, read-out: MIC Sa26 + 10% SH, S. aureus Sa26 + 10% SH.
Setting [12] is: ATCC25923, read-out: MIC Sa26 + 50% SH, S. aureus Sa26 + 50% SH.
The mark [13] stands for this setting: ATCC25923, S. aureus Sa26 ATCC 25923, sensitive strain, Mueller-Hinton Broth, 37° C., read-out: MIC Sa26.
Setting [14] is: NCTC6571, S. aureus Sa4 NCTC 6571, sensitive strain, read-out: MIC Sa4.
The mark [15] stands for this setting: ATCC13709, S. aureus Sa1 ATCC 13709, sensitive strain, Mueller-Hinton Broth, 37° C., read-out: MIC Sa1.
The mark [16] stands for this setting: DNA polymerase III, E. coli, read-out: IC50 semiquantitative scoring, E. coli.

DNA Polymerase IIIα (DnaE) from Staphylococcus aureus, sequence (Q6GG04 1-1022): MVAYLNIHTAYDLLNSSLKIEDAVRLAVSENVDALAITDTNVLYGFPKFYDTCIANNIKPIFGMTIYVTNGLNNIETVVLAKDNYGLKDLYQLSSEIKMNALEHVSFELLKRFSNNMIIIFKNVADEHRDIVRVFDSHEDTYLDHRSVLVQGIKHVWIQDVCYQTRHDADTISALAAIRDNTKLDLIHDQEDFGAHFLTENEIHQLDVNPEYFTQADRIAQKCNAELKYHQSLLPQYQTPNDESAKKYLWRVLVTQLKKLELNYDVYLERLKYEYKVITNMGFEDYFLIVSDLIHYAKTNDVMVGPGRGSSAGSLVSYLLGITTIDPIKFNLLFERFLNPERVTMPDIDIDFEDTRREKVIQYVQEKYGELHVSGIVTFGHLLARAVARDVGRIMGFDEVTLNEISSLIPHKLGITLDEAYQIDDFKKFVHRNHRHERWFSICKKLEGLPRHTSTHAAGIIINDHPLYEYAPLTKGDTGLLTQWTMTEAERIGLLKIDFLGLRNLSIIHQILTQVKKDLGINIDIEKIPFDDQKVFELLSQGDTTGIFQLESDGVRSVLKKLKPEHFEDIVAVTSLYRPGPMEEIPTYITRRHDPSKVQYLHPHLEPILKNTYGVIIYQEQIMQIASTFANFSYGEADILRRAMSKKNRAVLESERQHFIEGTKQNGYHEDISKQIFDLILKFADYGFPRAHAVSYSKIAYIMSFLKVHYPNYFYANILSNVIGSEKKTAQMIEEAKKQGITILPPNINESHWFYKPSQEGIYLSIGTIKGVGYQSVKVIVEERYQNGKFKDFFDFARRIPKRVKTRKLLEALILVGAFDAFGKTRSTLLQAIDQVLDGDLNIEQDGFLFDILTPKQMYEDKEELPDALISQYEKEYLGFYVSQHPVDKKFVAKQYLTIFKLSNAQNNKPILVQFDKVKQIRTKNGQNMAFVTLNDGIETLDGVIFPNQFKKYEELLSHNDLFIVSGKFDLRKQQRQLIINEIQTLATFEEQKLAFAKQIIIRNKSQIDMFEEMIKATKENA
DNA III Polymerase E, sequence (P10443 whole entry): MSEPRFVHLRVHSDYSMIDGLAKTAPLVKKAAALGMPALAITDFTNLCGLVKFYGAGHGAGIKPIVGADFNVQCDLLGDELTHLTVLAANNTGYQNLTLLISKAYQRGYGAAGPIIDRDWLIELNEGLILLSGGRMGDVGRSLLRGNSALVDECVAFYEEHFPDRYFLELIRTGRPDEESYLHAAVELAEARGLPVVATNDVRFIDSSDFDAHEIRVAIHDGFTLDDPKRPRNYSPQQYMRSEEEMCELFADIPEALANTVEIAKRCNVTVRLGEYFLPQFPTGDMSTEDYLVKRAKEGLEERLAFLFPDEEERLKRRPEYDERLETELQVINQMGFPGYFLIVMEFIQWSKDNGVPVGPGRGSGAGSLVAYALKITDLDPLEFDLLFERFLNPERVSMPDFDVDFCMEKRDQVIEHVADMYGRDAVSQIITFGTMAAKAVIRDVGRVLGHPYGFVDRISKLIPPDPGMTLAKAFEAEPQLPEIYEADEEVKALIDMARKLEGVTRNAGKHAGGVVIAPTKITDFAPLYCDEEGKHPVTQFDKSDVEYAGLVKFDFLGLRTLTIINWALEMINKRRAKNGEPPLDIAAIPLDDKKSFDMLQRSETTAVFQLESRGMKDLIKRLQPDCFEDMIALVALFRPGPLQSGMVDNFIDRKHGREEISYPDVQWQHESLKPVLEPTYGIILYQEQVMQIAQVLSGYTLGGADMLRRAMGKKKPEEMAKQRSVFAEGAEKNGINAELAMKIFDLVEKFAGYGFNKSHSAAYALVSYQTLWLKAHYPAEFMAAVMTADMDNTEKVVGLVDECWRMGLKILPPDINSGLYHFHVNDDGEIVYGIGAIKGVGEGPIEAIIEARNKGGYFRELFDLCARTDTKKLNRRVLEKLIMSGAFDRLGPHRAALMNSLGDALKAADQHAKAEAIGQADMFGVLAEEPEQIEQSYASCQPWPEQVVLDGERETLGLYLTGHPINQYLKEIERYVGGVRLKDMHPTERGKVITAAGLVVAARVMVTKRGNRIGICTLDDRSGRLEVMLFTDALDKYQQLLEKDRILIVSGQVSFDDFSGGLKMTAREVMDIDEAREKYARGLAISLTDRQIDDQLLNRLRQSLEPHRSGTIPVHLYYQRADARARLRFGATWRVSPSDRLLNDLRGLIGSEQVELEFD

On to `COC[C@@H]1[C@@H](O)[C@@H]2[C@H]3C=C[C@@H]4[C@@H](COC)C(=O)O[C@H]([C@H](O)COC)[C@H](C)/C=C(\C)[C@@]24O[C@H]3[C@@H]1OC(=O)c1cc[nH]n1` [Compound 10, 8-O-1H-Pyrazole-3′-carbonylbranimycin], for which the MIC in the assay with E. coli Ec1 ATCC 25922 (setting [10]) was more than 64 µg/mL; in assay [1] (setting [11]), 16 µg/mL; in assay [1] (setting [12]), 8 µg/mL; in [1] (setting [13]), 16 µg/mL (≈ 27.7 µM); in [2], 16 µg/mL (≈ 27.7 µM); in [3] it was more than 64 µg/mL. The MIC is 16 µg/mL (≈ 27.7 µM) in the assay on S. aureus Sa4 NCTC 6571 (setting [14]); more than 64 µg/mL in [4]; 16 µg/mL (≈ 27.7 µM) in [5]; more than 64 µg/mL in assay [7]; more than 64 µg/mL in assay [8]; 16 µg/mL (≈ 27.7 µM) in the assay with S. aureus Sa1 ATCC 13709 (setting [15]). Besides, the MIC in assay [9] is more than 64 µg/mL. Also, the half-maximal inhibitory concentration (IC50) is more than 17.3 µM against DNA III Polymerase E and 1.73 to 1730 nM in [6].

For `COC[C@@H]1[C@@H](O)[C@@H]2[C@H]3C=C[C@@H]4[C@@H](COC)C(=O)O[C@H]([C@H](O)COC)[C@H](C)/C=C(\C)[C@@]24O[C@H]3[C@@H]1OC(=O)c1ccoc1C` [Compound 11, 8-O-2-Methylfurane-3′-carbonylbranimycin], the MIC (with E. coli Ec1 ATCC 25922 (setting [10]); in [1] (setting [11]); in assay [1] (setting [12]); in assay [1] (setting [13]); in assay [2]; in assay [3]) was more than 64 µg/mL throughout. Further, the MIC in the assay on S. aureus Sa4 NCTC 6571 (setting [14]) was more than 64 µg/mL; in [4] it was more than 64 µg/mL; in [5], 8 µg/mL (≈ 13.5 µM); in assay [7], more than 64 µg/mL; in assay [8], more than 64 µg/mL; in the assay with S. aureus Sa1 ATCC 13709 (setting [15]), more than 64 µg/mL. The MIC in [9] is more than 64 µg/mL. In addition, the IC50 is more than 16.9 µM against DNA III Polymerase E and 1690 to 16900 nM in assay [6].

Take `COC[C@@H]1[C@@H](O)[C@@H]2[C@H]3C=C[C@@H]4[C@@H](COC)C(=O)O[C@H]([C@H](O)COC)[C@H](C)/C=C(\C)[C@@]24O[C@H]3[C@@H]1OC(=O)c1cc(C)c[nH]1` [Compound 12, 8-O-4-Methyl-1H-pyrrole-2′-carbonylbranimycin]: the MIC in the assay with E. coli Ec1 ATCC 25922 (ATCC25922, read-out: MIC Ec1) was more than 64 µg/mL; in assay [1] (ATCC25923, read-out: MIC Sa26), 16 µg/mL (≈ 27.1 µM); in assay [1] (ATCC25923, read-out: MIC Sa26 + 10% SH), 8 µg/mL; in assay [1] (ATCC25923, read-out: MIC Sa26 + 50% SH), 16 µg/mL; in assay [2], 4 µg/mL (≈ 6.78 µM); in [3], more than 64 µg/mL. Also, the MIC is 8 µg/mL (≈ 13.6 µM) with S. aureus Sa4 NCTC 6571 (NCTC6571, read-out: MIC Sa4); 64 µg/mL (≈ 109 µM) in [4]; 2 µg/mL (≈ 3.39 µM) in assay [5]; more than 64 µg/mL in assay [7]; 64 µg/mL (≈ 109 µM) in [8]; 8 µg/mL (≈ 13.6 µM) in the assay with S. aureus Sa1 ATCC 13709 (ATCC13709, read-out: MIC Sa1). The MIC in assay [9] was more than 64 µg/mL. Besides, the half-inhibitory concentration (IC50) on DNA III Polymerase E (setting [16]) is more than 17 µM; in [6] it was 1.7 to 1700 nM.

For the compound `COC[C@@H]1[C@@H](O)[C@@H]2[C@H]3C=C[C@@H]4[C@@H](COC)C(=O)O[C@H]([C@H](O)COC)[C@H](C)/C=C(\C)[C@@]24O[C@H]3[C@@H]1OC(=O)c1ccon1` [Compound 13, 8-O-Isoxazole-3′-carbonylbranimycin], the MIC (in the assay on E. coli Ec1 ATCC 25922 (setting [10]); in [1] (setting [11]); in assay [1] (setting [12]); in assay [1] (setting [13]); in assay [2]; in assay [3]) was more than 64 µg/mL throughout. The MIC was 64 µg/mL (≈ 111 µM) with S. aureus Sa4 NCTC 6571 (setting [14]); 64 µg/mL (≈ 111 µM) in assay [4]; 8 µg/mL (≈ 13.8 µM) in [5]; more than 64 µg/mL in assay [7]; more than 64 µg/mL in assay [8]; more than 64 µg/mL with S. aureus Sa1 ATCC 13709 (setting [15]). Moreover, the MIC in assay [9] amounted to 64 µg/mL (≈ 111 µM). The IC50 at DNA III Polymerase E (setting [16]) is more than 17.3 µM; in [6] (DNA polymerase III, S. aureus, read-out: IC50 semiquantitative scoring, S. aureus), 1730 to 17300 nM.
